The IC50 is the concentration needed to halve the response being measured.

CCR5 chemokine receptor, sequence (P51681 whole entry): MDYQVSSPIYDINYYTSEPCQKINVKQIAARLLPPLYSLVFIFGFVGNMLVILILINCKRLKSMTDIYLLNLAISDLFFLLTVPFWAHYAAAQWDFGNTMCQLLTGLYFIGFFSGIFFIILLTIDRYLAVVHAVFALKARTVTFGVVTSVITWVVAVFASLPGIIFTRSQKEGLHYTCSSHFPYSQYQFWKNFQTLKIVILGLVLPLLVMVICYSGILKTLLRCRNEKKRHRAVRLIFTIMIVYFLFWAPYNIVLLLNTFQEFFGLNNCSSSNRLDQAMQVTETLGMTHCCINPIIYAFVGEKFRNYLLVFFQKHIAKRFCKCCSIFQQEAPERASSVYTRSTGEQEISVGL

The assay addresses CCR5 chemokine receptor (Homo sapiens, UniProt P51681). Briefly: Inhibition Data (IC50; no method described). The note with it: assay not described, read-out: Activity (*) (IC50 class).
For the compound `CN(C[C@@](C)(CCN1CC[C@@H]2[C@@H](CCN2C(=O)OC(C)(C)C)C1)c1ccccc1)S(=O)(=O)c1ccccc1` [Example 1], the IC50 is less than 1 nM.
Next, `CN(C[C@@](C)(CCN1CC[C@H]2[C@H](CCN2C(=O)OC(C)(C)C)C1)c1ccccc1)S(=O)(=O)c1ccccc1` [Example 2]: less than 1000 nM.
Turning to `CN(C[C@@](C)(CCN1CC[C@H]2[C@H](CCN2C(=O)OC(C)(C)C)C1)c1ccccc1)S(=O)(=O)c1ccc(CNC(=O)O[C@H]2CCOC2)cc1` [Example 3], the IC50 was less than 1000 nM.
For `CN(C[C@@](C)(CCN1CC[C@@H]2[C@@H](CCN2C(=O)OC(C)(C)C)C1)c1ccccc1)S(=O)(=O)c1ccc(CNC(=O)O[C@H]2CCOC2)cc1` [Example 4] the value was less than 1 nM.
For `CN(C[C@@](C)(CCN1C2CCC1CC(NC(=O)OCc1ccccc1)C2)c1ccccc1)S(=O)(=O)c1ccccc1` (stereo partly drawn) [Example 5], the concentration for half-maximal inhibition (IC50) is less than 100 nM.
Next, `CN(C[C@@](C)(CCN1C2CCC1CC(NC(=O)OCc1ccccc1)C2)c1ccccc1)S(=O)(=O)c1ccccc1` (stereo partly drawn) [Example 6]: less than 100 nM; `CN(C[C@@](C)(CCN1CC[C@H]2CN(C(=O)OCc3ccccc3)C[C@H]2C1)c1ccccc1)S(=O)(=O)c1ccccc1` [Example 7]: less than 100 nM; `CN(C[C@@](C)(CCN1CC[C@H]2CNC[C@H]2C1)c1ccccc1)S(=O)(=O)c1ccccc1` [Example 8]: less than 1000 nM.
For `CN(C[C@@](C)(CCN1CC[C@H]2CN(C(=O)OC(C)(C)C)C[C@H]2C1)c1ccccc1)S(=O)(=O)c1ccccc1` [Example 9] the value was less than 100 nM; for `CN(C[C@@](C)(CCN1C[C@H]2CCN(C(=O)OC(C)(C)C)C[C@H]2C1)c1ccccc1)S(=O)(=O)c1ccccc1` [Example 10], less than 100 nM.
Next, `CN(C[C@@](C)(CCN1CC[C@H]2CN(C(=O)OCc3ccccc3)C[C@H]2C1)c1ccccc1)S(=O)(=O)c1ccccc1` [Example 11]: less than 100 nM; `C[C@@H](NC(=O)N1CC2CCN(CC[C@](C)(CN(C)S(=O)(=O)c3ccccc3)c3ccccc3)C[C@@H]2C1)c1ccccc1` (stereo partly drawn) [Example 12]: less than 100 nM.
Consider `C[C@@H](NC(=O)N1CC2CCN(CC[C@](C)(CN(C)S(=O)(=O)c3ccccc3)c3ccccc3)C[C@@H]2C1)c1ccccc1` (stereo partly drawn) [Example 13], for which the IC50 was less than 100 nM.
For `C[C@H](NC(=O)N1C[C@H]2CN(CC[C@](C)(CN(C)S(=O)(=O)c3ccccc3)c3ccccc3)CC[C@H]2C1)c1ccccc1` [Example 14] the value was less than 1000 nM; for `C[C@H](c1ccccc1)N(C)C(=O)N1C[C@H]2CN(CC[C@](C)(CN(C)S(=O)(=O)c3ccccc3)c3ccccc3)CC[C@H]2C1` [Example 15], less than 100 nM; for `Cc1nnc(C(C)C)n1C1CC2CCC(C1)N2CC[C@](C)(CN(C)S(=O)(=O)c1ccccc1)c1ccccc1` (stereo partly drawn) [Example 16], less than 10 nM.
For `C[C@H](NC(=O)N1CC2CN(CC[C@](C)(CN(C)S(=O)(=O)c3ccccc3)c3ccccc3)CC[C@H]2C1)c1cccc2ccccc12` (stereo partly drawn) [Example 17], the IC50 is less than 1000 nM.
As for `Cc1ccc(S(=O)(=O)N2C[C@H]3CN(CC[C@](C)(CN(C)S(=O)(=O)c4ccccc4)c4ccccc4)CC[C@H]3C2)cc1` [Example 18], the concentration for half-maximal inhibition (IC50) was less than 1000 nM.
For `Cc1nc(COC(=O)N2C[C@H]3CN(CC[C@](C)(CN(C)S(=O)(=O)c4ccccc4)c4ccccc4)CC[C@H]3C2)c(C)o1` [Example 19] the value was less than 1000 nM; for `CC(C)COC(=O)NC1CC2CCC(C1)N2CC[C@](C)(CN(C)S(=O)(=O)c1ccccc1)c1ccccc1` (stereo partly drawn) [Example 20], less than 100 nM.
Next, `CN(C[C@@](C)(CCN1C2CCC1CC(NC(=O)O[C@H]1CCOC1)C2)c1ccccc1)S(=O)(=O)c1ccccc1` (stereo partly drawn) [Example 21]: less than 100 nM; `CN(C[C@@](C)(CCN1CC2CCN(C(=O)OC(C)(C)C)C2C1)c1ccccc1)S(=O)(=O)c1ccccc1` (stereo partly drawn) [Example 22]: less than 1000 nM.
Next, `CN(CC(C)(CCN1CCC2C(CCN2C(=O)OC(C)(C)C)C1)c1ccccc1)S(=O)(=O)c1ccccc1` (stereo not drawn) [Example 25]: less than 10 nM; `CC(C)(C)OC(=O)N1CCC2CN(C(=O)[C@H](Cc3ccccc3)NC(=O)OCc3ccccc3)CCC21` (stereo partly drawn) [Example 26]: less than 1000 nM.
`CC(C)(C)OC(=O)N1CCC2CN(C(=O)[C@@H](N)Cc3ccccc3)CCC21` (stereo partly drawn) [Example 27]: the IC50 is less than 1000 nM.
On to `CN(CC(C)(CCN1CCC2C(CCN2C(=O)OC2CO[C@H]3OCCC23)C1)c1ccccc1)S(=O)(=O)c1ccccc1` (stereo partly drawn) [Example 28], for which the IC50 was less than 100 nM.
Next, `CN(CC(C)(CCN1CCC2C(CCN2C(=O)OC2CCOC2)C1)c1ccccc1)S(=O)(=O)c1ccccc1` (stereo not drawn) [Example 29]: less than 1000 nM; `CO[C@@](CCN1CCC2C(CCN2C(=O)OC(C)(C)C)C1)(CN(C)S(=O)(=O)c1ccccc1)c1ccccc1` (stereo partly drawn) [Example 30]: less than 1000 nM; `CO[C@](CCN1CCC2C(CCN2C(=O)OC(C)(C)C)C1)(CN(C)S(=O)(=O)c1ccccc1)c1ccccc1` (stereo partly drawn) [Example 31]: less than 1000 nM.
Next, `CN(CC(C)(CCN1CCC2C(CCN2C(=O)OC(C)(C)C)C1)c1ccccc1)S(=O)(=O)c1ccccc1` (stereo not drawn) [Example 32]: less than 100 nM; `CN(CC(C)(CCN1CCC2C(CCN2C(=O)OC(C)(C)C)C1)c1ccccc1)S(=O)(=O)c1ccc(C(=O)OCc2ccccc2)cc1` (stereo not drawn) [Example 33]: less than 1000 nM; `CN(CC(C)(CCN1CCC2C(CCN2C(=O)OC(C)(C)C)C1)c1ccccc1)S(=O)(=O)c1ccc(C(=O)O)cc1` (stereo not drawn) [Example 34]: less than 100 nM.
For `CC(=O)OC(OC(C)=O)c1ccc(S(=O)(=O)N(C)CC(C)(CCN2CCC3C(CCN3C(=O)OC(C)(C)C)C2)c2ccccc2)cc1` (stereo not drawn) [Example 35] the value was less than 100 nM; for `COC(OC)c1ccc(S(=O)(=O)N(C)CC(C)(CCN2CCC3C(CCN3C(=O)OC(C)(C)C)C2)c2ccccc2)cc1` (stereo not drawn) [Example 36], less than 100 nM.
On to `CN(CC(C)(CCN1CCC2C(CCN2C(=O)OC(C)(C)C)C1)c1ccccc1)S(=O)(=O)c1ccc(CNC(=O)OCc2ccccc2)cc1` (stereo not drawn) [Example 37], for which the IC50 is less than 1000 nM.
Next, `CC(=O)NCc1ccc(S(=O)(=O)N(C)CC(C)(CCN2CCC3C(CCN3C(=O)OC(C)(C)C)C2)c2ccccc2)cc1` (stereo not drawn) [Example 38]: less than 100 nM; `CN(CC(C)(CCN1CCC2C(CCN2C(=O)OC(C)(C)C)C1)c1ccccc1)S(=O)(=O)c1ccc(CNC(=O)OC(C)(C)C)cc1` (stereo not drawn) [Example 39]: less than 1000 nM.
Next, `CN(CC(C)(CCN1CCC2C(CCN2C(=O)OC(C)(C)C)C1)c1ccccc1)S(=O)(=O)c1ccc(CNC(=O)O[C@H]2CCOC2)cc1` (stereo partly drawn) [Example 40]: less than 100 nM; `CN(CC(C)(CCN1CCC2C(CCN2C(=O)OC(C)(C)C)C1)c1ccccc1)S(=O)(=O)c1ccc(CN)cc1` (stereo not drawn) [Example 41]: less than 1000 nM; `CN(C[C@@](C)(CCN1CCC2C(CCN2C(=O)OC(C)(C)C)C1)c1ccccc1)S(=O)(=O)c1ccccc1` (stereo partly drawn) [Example 43]: less than 100 nM.
For `CN(C[C@@](C)(CCN1CC[C@@H]2[C@@H](CCN2C(=O)OC(C)(C)C)C1)c1ccccc1)S(=O)(=O)c1ccccc1` [Example 44] the value was less than 10 nM.
Consider `CN(C[C@@](C)(CCN1CC[C@@H]2[C@@H](CCN2C(=O)OC(C)(C)C)C1)c1ccccc1)S(=O)(=O)c1ccccc1` [Example 46], for which the IC50 is less than 1000 nM.
`CC1CN(CC[C@](C)(CN(C)S(=O)(=O)c2ccccc2)c2ccccc2)CCC12C=Cc1ccccc12` (stereo partly drawn) [Example 48]: the IC50 was less than 1000 nM.
Next, `COc1ccc(C(C)(CCN2CCC3C(CCN3C(=O)OC(C)(C)C)C2)CN(C)S(=O)(=O)c2ccccc2)cc1` (stereo not drawn) [Example 49]: less than 100 nM; `COc1cccc(C(C)(CCN2CCC3C(CCN3C(=O)OC(C)(C)C)C2)CN(C)S(=O)(=O)c2ccccc2)c1` (stereo not drawn) [Example 50]: less than 1000 nM; `CN1N=C2CCN(CC[C@](C)(CN(C)S(=O)(=O)c3ccccc3)c3ccccc3)CC2(C)C1=O` (stereo partly drawn) [Example 51]: less than 1000 nM.
Consider `CN1N=C2CCN(CC[C@](C)(CN(C)S(=O)(=O)c3ccccc3)c3ccccc3)CC2(Cc2ccccc2)C1=O` (stereo partly drawn) [Example 52], for which the IC50 was less than 1000 nM.
For `COC(=O)[C@@H](CCSC)NC(=O)C1CCN(CC[C@](C)(CN(C)S(=O)(=O)c2ccccc2)c2ccccc2)CC1` [Example 56] the value was less than 1000 nM; for `CN(C[C@@](C)(CCN1CCC2(CC1)CCN(C(=O)OC(C)(C)C)C2)c1ccccc1)S(=O)(=O)c1ccccc1` [Example 58], less than 1000 nM.
`CN(C[C@@](C)(CCN1CC2CN(C(=O)OC(C)(C)C)[C@H]2C1)c1ccccc1)S(=O)(=O)c1ccccc1` (stereo partly drawn) [Example 64]: the IC50 was less than 1000 nM.
Turning to `CN(C[C@@](C)(CCN1CCC2(CCCN2C(=O)OC(C)(C)C)CC1)c1ccccc1)S(=O)(=O)c1ccccc1` [Example 65], the IC50 was less than 1000 nM.
Regarding `CN(C[C@@](C)(CCNC1C2CCC1CN(C(=O)OC(C)(C)C)C2)c1ccccc1)S(=O)(=O)c1ccccc1` (stereo partly drawn) [Example 66], the IC50 is less than 1000 nM.
In the case of `CN(C[C@@](C)(CCNC1CC2CCC(C1)N2C(=O)OC(C)(C)C)c1ccccc1)S(=O)(=O)c1ccccc1` (stereo partly drawn) [Example 67], the IC50 is less than 1000 nM.
For `CN(C[C@@](C)(CCN1CC[C@H]2CNC(=O)[C@H]2C1)c1ccccc1)S(=O)(=O)c1ccccc1` [Example 69], the IC50 is less than 1000 nM.
`CN(C[C@@](C)(CCN1C2CCC1CC(NC(=O)OC(C)(C)C)C2)c1ccccc1)S(=O)(=O)c1ccccc1` (stereo partly drawn) [Example 70]: the IC50 was less than 1000 nM.
For `CN(C[C@@](C)(CCN1CC[C@H]2OC(C)(C)O[C@H]2C1)c1ccccc1)S(=O)(=O)c1ccccc1` [Example 71], the half-inhibitory concentration (IC50) was less than 1000 nM.
For `CC(C)[C@H](NC(=O)OCc1ccccc1)C(=O)N1CC2CN(C(=O)OC(C)(C)C)CC[C@H]2C1` (stereo partly drawn) [Example 72] the value was less than 1000 nM; for `CC(C)(C)OC(=O)N1CC[C@H]2CN(C(=O)O[C@H]3CCOC3)C[C@H]2C1` [Example 74], less than 1000 nM.
Consider `CN(C[C@@](C)(CCN1CC[C@H]2CN(C(=O)OCc3ccccc3)C[C@H]2C1)c1ccccc1)S(=O)(=O)c1ccccc1` [Example 75], for which the IC50 was less than 1000 nM.
For `CN(C[C@@](C)(CCN1CC[C@H]2CN(C(N)=O)C[C@H]2C1)c1ccccc1)S(=O)(=O)c1ccccc1` [Example 76] the value was less than 1000 nM.

The values are drawn from patent US9062057B2, “CCR5 antagonists for treating HIV” (Purdue Research Foundation, priority 2010, dated 2015).
